What was measured:
diseased tissue = experiment: topical application of acids, enzymes and the topical liquid to skin, mucous membranes and diseased tissue; conditions: for aggressiveness toward the skin and mucous membranes / tissues: topical use while selecting components of the mixture
Excerpt: The topical liquid or aqueous composition is composed of substances such as nitric acid and enzymes, mucins and ptyalin which are combined to form an aqueous pharmaceutical composition which is applied to the infected tissues and selectively attacks the cells of the diseased tissue or tumour. This composition is applied to the tissues which are to be eliminated, in dabs which are applied using a cotton swab moistened with the topical liquid that destroys the pathogenic tissue. It is applied to the diseased tissue as necessary, until the tissue changes colour and a small clear or pink halo appears round the treated tissue. The site is then washed with clean water. When applied to the mucous membranes, washing after application of the pathogenic-tissue destroying topical liquid is not necessary. […] However, this sometimes depends on the sensitivity of the individual (only individuals who have a tendency to form keloid scars will be left with a slight sign).

[1] = tested on: herpes simplex virus type 1; conditions: 4 mM, cited from earlier work

Row | Structure (SMILES) | aggressiveness toward the skin and mucous membranes / tissues (diseased tissue) | also measured
1 | Cl [hydrochloric acid] | too aggressive | –
2 | O=S(=O)(O)O [sulphuric, sulphuric acid] | too aggressive | –
3 | O=[N+]([O-])O [Nitric acid] | least aggressive | –
4 | O=C(O)CC(O)(CC(=O)O)C(=O)O [citric acid] | – | coagulation of the diseased tissue (diseased tissue; topical application): did not succeed in coagulating the diseased tissue
5 | O=C(O)C(O)CO (stereo not drawn) [glyceric acid] | – | synthesis of glycoproteins in normal cells ([1]; normal cells): slightly affected; production of the virus inhibited [1]: 99%
